Results: patent publication US11840686B2, “Modulation of prekallikrein (PKK) expression” (Ionis Pharmaceuticals, Inc., priority 2013, dated 2023)
Strand notation (5' to 3'): a small letter for the sugar, then the base; units joined by * are phosphorothioate-linked, units joined directly phosphodiester-linked; [ ] holds rarer units or linkages, { } end groups; capitals alone tell only the bases. e = 2'-O-(2-methoxyethyl) (MOE); [5mC] = 5-methylcytosine; d = 2'-deoxy (DNA)

Tests used:
human PKK mRNA [1] = assay: Antisense inhibition of human PKK mRNA in HepaRG cells, 5,000 nM (Example 2); format: cell-based
How it was run: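 HepaRG cells (20,000/well) electroporated with 5,000 nM MOE gapmer (phosphorothioate backbone, 5-methylcytosines) and harvested after ~24 h. PKK mRNA measured by qRT-PCR with primer probe set RTS3454, normalized to RIBOGREEN total RNA; percent inhibition versus untreated cells.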

human PKK mRNA [2] = assay: Dose-dependent antisense inhibition of human PKK in HepaRG cells, 0.19-5.00 uM (Example 5); format: cell-based; settings: for percent inhibition of PKK mRNA, 0.19 μM: 0.19 μM antisense oligonucleotide; for percent inhibition of PKK mRNA, 0.56 μM: 0.56 μM antisense oligonucleotide; for percent inhibition of PKK mRNA, 1.67 μM: 1.67 μM antisense oligonucleotide; for percent inhibition of PKK mRNA, 5.00 μM: 5.00 μM antisense oligonucleotide
How it was run: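 HepaRG cells (20,000/well) were electroporated with antisense oligonucleotide at 0.19, 0.56, 1.67 and 5.00 μM and treated for about 16 hours. PKK mRNA was quantified by qRT-PCR with primer probe set RTS3454, normalised to RIBOGREEN total RNA, and IC50 was derived per oligonucleotide.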

[3] = HepaRG cells, 5,000 nM antisense oligonucleotide, 5-10-5 gapmers, Table 16
[4] = HepaRG cells, electroporation, approximately 16 hours, Table 36
[5] = 4 point dose response, HepaRG cells, Table 36
[6] = HepaRG cells, electroporation, approximately 16 hours, Table 40
[7] = 4 point dose response, HepaRG cells, Table 40
[8] = Table 8, HepaRG cells, electroporation with 5,000 nM antisense oligonucleotide, approx. 24 hours, PKK mRNA by RT-PCR (RTS3454), relative to untreated control cells
[9] = HepaRG cells, electroporation, approximately 16 hours, Table 35
[10] = 4 point dose response, HepaRG cells, Table 35
[11] = HepaRG cells, electroporation, approximately 16 hours, Table 41
[12] = 4 point dose response, HepaRG cells, Table 41
[13] = human PKK mRNA in HepaRG cells, 5-10-5 gapmers, Table 14
[14] = Table 34, HepaRG, electroporation, ~16 h

546986 (e[5mC]*eA*eG*eG*eA*dT*dA*dG*dA*dA*d[5mC]*dT*dG*dA*dT*eG*eG*eT*e[5mC]*e[5mC]; antisense) [compound 546986]
% inhibition (human PKK mRNA [1]; [3]): 91%
percent inhibition of PKK at 0.19 μM (human PKK mRNA [2]; [4]): 31%
percent inhibition of PKK at 0.56 μM (human PKK mRNA [2]; [4]): 49%
percent inhibition of PKK at 1.67 μM (human PKK mRNA [2]; [4]): 77%
percent inhibition of PKK at 5.00 μM (human PKK mRNA [2]; [4]): 89%
IC50 (human PKK mRNA [2]; [5]): 500 nM
percent inhibition of PKK mRNA, 0.19 μM (human PKK mRNA [2]; HepaRG cells): 7%
percent inhibition of PKK mRNA, 0.56 μM (human PKK mRNA [2]; HepaRG cells): 28%
percent inhibition of PKK mRNA, 1.67 μM (human PKK mRNA [2]; HepaRG cells): 69%
percent inhibition of PKK mRNA, 5.00 μM (human PKK mRNA [2]; HepaRG cells): 86%
IC50 (human PKK mRNA [2]; HepaRG cells, 0.19-5.00 μM): 1100 nM

547493 (antisense eT*e[5mC]*eT*eG*eA*dG*d[5mC]*dT*dT*dT*dT*d[5mC]*d[5mC]*dA*dT*e[5mC]*eA*e[5mC]*eT*eG) [compound 547493]
% inhibition (human PKK mRNA [1]; HepaRG cells, electroporation, 5,000 nM antisense oligonucleotide, approx. 24 hours, primer probe set RTS3454, relative to untreated control cells, Table 11): 72%
percent inhibition of PKK at 0.19 μM (human PKK mRNA [2]; [6]): 0%
percent inhibition of PKK at 0.56 μM (human PKK mRNA [2]; [6]): 26%
percent inhibition of PKK at 1.67 μM (human PKK mRNA [2]; [6]): 64%
percent inhibition of PKK at 5.00 μM (human PKK mRNA [2]; [6]): 77%
IC50 (human PKK mRNA [2]; [7]): 1300 nM

546301 (antisense eT*eT*eG*eT*eA*dA*dT*dG*dT*d[5mC]*dT*dG*dA*d[5mC]*dA*eG*eA*eT*eT*eT) [compound 546301]
% inhibition (human PKK mRNA [1]; [8]): 93%
percent inhibition of PKK at 0.19 μM (human PKK mRNA [2]; [9]): 25%
percent inhibition of PKK at 0.56 μM (human PKK mRNA [2]; [9]): 50%
percent inhibition of PKK at 1.67 μM (human PKK mRNA [2]; [9]): 53%
percent inhibition of PKK at 5.00 μM (human PKK mRNA [2]; [9]): 87%
IC50 (human PKK mRNA [2]; [10]): 800 nM

546291 (antisense e[5mC]*eA*eG*eG*eG*d[5mC]*d[5mC]*dA*d[5mC]*dT*d[5mC]*dT*d[5mC]*d[5mC]*d[5mC]*e[5mC]*eA*eA*eG*eA) [compound 546291]
% inhibition (human PKK mRNA [1]; [8]): 81%
percent inhibition of PKK at 0.19 μM (human PKK mRNA [2]; [6]): 22%
percent inhibition of PKK at 0.56 μM (human PKK mRNA [2]; [6]): 32%
percent inhibition of PKK at 1.67 μM (human PKK mRNA [2]; [6]): 34%
percent inhibition of PKK at 5.00 μM (human PKK mRNA [2]; [6]): 72%
IC50 (human PKK mRNA [2]; [7]): 2000 nM

546967 (e[5mC]*eA*e[5mC]*e[5mC]*eG*d[5mC]*dG*d[5mC]*dG*dA*dA*dT*dG*d[5mC]*d[5mC]*eT*eG*e[5mC]*e[5mC]*eT; antisense) [compound 546967]
% inhibition (human PKK mRNA [1]; [3]): 93%
percent inhibition of PKK at 0.19 μM (human PKK mRNA [2]; [9]): 20%
percent inhibition of PKK at 0.56 μM (human PKK mRNA [2]; [9]): 39%
percent inhibition of PKK at 1.67 μM (human PKK mRNA [2]; [9]): 76%
percent inhibition of PKK at 5.00 μM (human PKK mRNA [2]; [9]): 71%
percent inhibition of PKK at 5.00 μM (human PKK mRNA [2]; [11]): 92%
percent inhibition of PKK at 0.19 0μM (human PKK mRNA [2]; [11]): 22%
percent inhibition of PKK at 0.56 0μM (human PKK mRNA [2]; [11]): 45%
percent inhibition of PKK at 1.67 1μM (human PKK mRNA [2]; [11]): 74%
IC50 (human PKK mRNA [2]; [10]): 700 nM
IC50 (human PKK mRNA [2]; [12]): 700 nM

547617 (antisense e[5mC]*eT*eG*eT*e[5mC]*d[5mC]*dT*dA*dT*dA*dT*d[5mC]*dA*d[5mC]*dT*eG*eT*eA*e[5mC]*e[5mC]) [compound 547617]
% inhibition (human PKK mRNA [1]; [13]): 91%
percent inhibition of PKK at 0.19 μM (human PKK mRNA [2]; [4]): 52%
percent inhibition of PKK at 0.56 μM (human PKK mRNA [2]; [4]): 66%
percent inhibition of PKK at 1.67 μM (human PKK mRNA [2]; [4]): 77%
percent inhibition of PKK at 5.00 μM (human PKK mRNA [2]; [4]): 93%
IC50 (human PKK mRNA [2]; [5]): 200 nM
percent inhibition of PKK mRNA, 0.19 μM (human PKK mRNA [2]; HepaRG cells): 17%
percent inhibition of PKK mRNA, 0.56 μM (human PKK mRNA [2]; HepaRG cells): 37%
percent inhibition of PKK mRNA, 1.67 μM (human PKK mRNA [2]; HepaRG cells): 79%
percent inhibition of PKK mRNA, 5.00 μM (human PKK mRNA [2]; HepaRG cells): 98%
IC50 (human PKK mRNA [2]; HepaRG cells, 0.19-5.00 μM): 700 nM

547587 (e[5mC]*eT*eA*eT*eA*dA*d[5mC]*dA*dG*dT*dA*dT*d[5mC]*dA*d[5mC]*eT*eG*eT*e[5mC]*e[5mC]; antisense) [compound 547587]
% inhibition (human PKK mRNA [1]; [13]): 96%
percent inhibition of PKK at 5.00 μM (human PKK mRNA [2]; [11]): 97%
percent inhibition of PKK at 0.19 0μM (human PKK mRNA [2]; [11]): 38%
percent inhibition of PKK at 0.56 0μM (human PKK mRNA [2]; [11]): 64%
percent inhibition of PKK at 1.67 1μM (human PKK mRNA [2]; [11]): 91%
IC50 (human PKK mRNA [2]; [12]): 300 nM
percent inhibition of PKK at 0.19 μM (human PKK mRNA [2]; [14]): 20%
percent inhibition of PKK at 0.56 μM (human PKK mRNA [2]; [14]): 62%
percent inhibition of PKK at 1.67 μM (human PKK mRNA [2]; [14]): 84%
percent inhibition of PKK at 5.00 μM (human PKK mRNA [2]; [14]): 86%
IC50 (human PKK mRNA [2]; Table 34, PKK mRNA, HepaRG, electroporation, ~16 h): 500 nM
